From patent US20190367963A1, “METHOD FOR SELECTING ODOR CONTROL SUBSTANCE” (KAO CORPORATION, priority 2017, published 2019)

How the values were obtained:
[1] = biological target: T1, OR2W1 (Homo sapiens, UniProt Q9Y3N9); assay: Luciferase reporter gene assay of OR2W1 expressing HEK293 cells; assay type: cell-based
T1 construct: expressed in transfected cells; host or cells: HEK293
T1 sequence (Q9Y3N9 1-320): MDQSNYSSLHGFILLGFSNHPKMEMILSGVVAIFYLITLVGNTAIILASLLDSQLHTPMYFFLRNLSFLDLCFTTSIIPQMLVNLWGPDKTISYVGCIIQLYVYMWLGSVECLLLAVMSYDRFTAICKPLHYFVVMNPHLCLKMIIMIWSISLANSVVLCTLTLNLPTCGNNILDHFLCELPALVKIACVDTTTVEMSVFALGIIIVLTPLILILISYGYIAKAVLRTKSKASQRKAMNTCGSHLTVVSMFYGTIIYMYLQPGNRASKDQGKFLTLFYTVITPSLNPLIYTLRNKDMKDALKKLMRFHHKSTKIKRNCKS
Text: (§1) Based on the sequence information registered in GenEank, genes encoding 427 human olfactory receptors including variants were each cloned. Each gene was cloned by PCR using human genomic DNA female (G1521: Promega) as the template. Each gene amplified by PCR was recombined downstream of a Flag-Rho tag sequence on a pME18S vector.
(§2) A gene encoding human RTP1S was inserted into the EcoRI/XhoI site of a pME18S vector.
427 HEK293 cells differently expressing one of 427 human olfactory receptors were produced. Reaction solutions having compositions shown in Table 1 were prepared and were left to stand in a clean bench for 15 minutes. The reaction solutions were added to each well of a multi-well plate (384 or 96-well plate, BioCoat), and HEK293 cells were then seeded. In the 384-well plate, 4.4 μL of a reaction solution and 40 μL of HEK293 cells (20×10^4 cells/cm^2) were added. In the 96-well plate, 10 μL of a reaction solution and 90 μL of HEK293 cells (3×10^5 cells/cm^2) were added. The cells were cultured in an incubator maintained at 37° C. and 5% CO2 for 24 hours. As a control, cells not expressing an olfactory receptor (mock) were prepared.
The olfactory receptor expressed in HEK293 cells interact with endogenous cellular Gas to activate adenylate cyclase and thereby increases the intracellular cAMP level. The measurement of the response of cells to an odorant, test substance, or antagonist in the present invention was performed by a luciferase reporter gene assay monitoring the increase in the intracellular cAMP level as a light emission value derived from a firefly luciferase gene (fluc2P-CRE-hygro). A Renilla luciferase gene fused to downstream of a CMV promoter (hRluc-CMV) was simultaneously transfected and was used as an internal standard for calibrating the error in gene transfer efficiency or the number of cells. The luciferase activity was measured from 2.5 to 4 hours after stimulation with an odorant or a test substance with a Dual-Glo™ luciferase assay system (Promega), following user's manual thereof. The value fLuc/hRluc was calculated by dividing the light emission value derived from firefly luciferase by the light emission value derived from Renilla luciferase. “Fold increase” as an indicator of the responsiveness of an olfactory receptor to stimulation with a test substance, and “odor response” (%) as an indicator of the activity level of an antagonist to the olfactory receptor, were calculated according to the following formula: […]
X: fLuc/hRluc, induced by stimulation with a test substance alone, and
Y: fLuc/hRluc, without stimulation with a test substance.
L-Arginine and 1-histidine were used as test substances. […]

[2] = Sensory examination: PEA detection threshold value before and after nasal administration; assay type: in vivo; conditions: 10 mM in saline, nasal spray, human examinees, one minute after spraying
Procedure: The action of 1-arginine, which is an OR2W1 selective ligand, on olfaction was evaluated by sensory examination. Three samples, saline (Otsuka Pharmaceutical Co., Ltd.), saline aqueous solution containing 10 mM 1-arginine, and saline aqueous solution containing 10 mM 1-histidine, were prepared and filled into nasal sprays (KT110-102, AS ONE Corporation). […] PEA aqueous solutions with 11 different concentrations from 0.001 to 100 WA were prepared as test solutions, and 3 mL of each of the solutions was respectively added to 20-mL glass vials (Maruemu Corporation).
The experiment was blinded to both an examiner and an examinee. The examiner set the spray spout in the nasal cavity of the examinee as deep as possible and sprayed once. The amount of liquid ejected thereby was about 100 to 200 μL. […] The concentration that gave a correct answer three consecutive times after answering an incorrect answer was determined as the detection threshold value. […] Before and after the nasal administration of a sample, detection threshold values of an examinee to PEA were measured. The rate of change in the threshold value was determined by calculating (threshold value concentration before sample nasal administration)/(threshold value concentration after sample nasal administration).

[3] = Sensory examination: odor intensity (labeled magnitude scale) on simultaneous exposure to odorant and test substance; assay type: in vivo, human; conditions: test substance 10 mM in saline, ultrasonic nebulizer, LMS; for odor intensity of HCA used together with test substance: HCA 0.1 mM; for odor intensity of PEA used together with test substance: PEA 0.1 mM
Procedure: Whether the odor of an odorant was enhanced or not by simultaneous exposure to the odorant and 1-arginine was investigated by comparing with exposure to the odorant alone. PEA or hexyl cinnamic aldehyde (HCA) was used as the odorant. The odorant was added at a final concentration of 0.1 mM to a saline aqueous solution with 1-arginine (10 mM) and a saline aqueous solution with 1-histidine (10 mM) as a control. The resulting solutions were sprayed to an examinee for inhaling using an ultrasonic nebulizer (NE-U07: OMRON Corporation, atomization particle diameter: 1 to 8 μm (80% of total volume particle diameter distribution)) with a spray amount of about 170 μL (for about 20 seconds) at most, and odor intensity was evaluated.
The odor intensity was evaluated according to the method of Green, et al, (Chemical senses, 1996, 21: 323-34) with the labeled magnitude scale (LMS) shown below. That is, assuming the full scale length was 100%, labels were set to the following positions: Barely detectable: 1.4%, Weak: 6.1%, Moderate: 17.2%, Strong: 35.4%, Very strong: 53.3%, Strongest imaginable: 100%.

[4] = test system: 427 human olfactory receptors; assay: Luciferase reporter gene assay of 427 human olfactory receptors expressed in HEK293 cells; assay type: cell-based; conditions: test substance 10 mM
Text: as §1, §2
427 HEK293 cells differently expressing one of 427 human olfactory receptors were produced. Reaction solutions having compositions shown in Table 1 were prepared and were left to stand in a clean bench for 15 minutes. The reaction solutions were added to each well of a multi-well plate (384 or 96-well plate, BioCoat), and HEK293 cells were then seeded. […]
The olfactory receptor expressed in HEK293 cells interact with endogenous cellular Gas to activate adenylate cyclase and thereby increases the intracellular cAMP level. […] The luciferase activity was measured from 2.5 to 4 hours after stimulation with an odorant or a test substance with a Dual-Glo™ luciferase assay system (Promega), following user's manual thereof. The value fLuc/hRluc was calculated by dividing the light emission value derived from firefly luciferase by the light emission value derived from Renilla luciferase. […]

Row | Compound | response of OR2W1 expressing cells [1] | PEA detection threshold value after nasal administration [2] | odor intensity of HCA used together with test substance [3] | odor intensity of PEA used together with test substance [3] | responses of 427 olfactory receptors [4]
1 | CCCCCCC(C=O)=Cc1ccccc1 [HCA, 2-(phenylmethylidene)octanal] | did not respond |  |  |  | 
2 | N=C(N)NCCC[C@H](N)C(=O)O [1-arginine, L-Arginine] | responded to 1-arginine concentration dependently | decreased in statistically significant manner | enhanced in statistically siggificant manner | enhanced in statistically siggificant manner | no olfactory receptors other than OR2W1 responded
3 | OCCc1ccccc1 [PEA, 2-phenylethanol] | responded |  |  |  | 
4 | N[C@@H](Cc1c[nH]cn1)C(=O)O [1-histidine, L-Histidine] | did not respond | not observed | the effect of enhancing the odor intensity was not observed | the effect of enhancing the odor intensity was not observed | did not respond
